Source: patent US20110294722A1, “ANTIMICROBIAL PEPTIDES” (priority 2008, published 2011)
Like-named read-outs stand apart in the source and are kept apart here. No end group written: not given here.

Key:
Pseudomonas corrugata [1] = assay type: cell-based; conditions: for LC (lethal concentration, 100% inhibition): at least 4 days of incubation
Protocol: (§1) In-vitro inhibition assays were performed in sterile flat-bottom 96-well plates (Greiner bio-one, Frickenhausen). Antimicrobial peptides were dissolved in 0.01% acetic acid containing 0.2% BSA (500 μg/ml), filter sterilized and stored at −20° C. For inhibition assays dilutions of peptides ranging from 5 to 200 μg/ml were prepared and 10 μl (antibacterial assay) or 20 (antifungal assay) of each concentration was loaded per well.
(§2) Bacteria colonies from overnight agar plate cultures were resuspended into 5 ml LB-medium or HPG-medium (OD600 nm=0.08-0.1) and diluted into LB-medium/HPG-medium (1:100). 90 μl of this suspension containing about 10^5-10^6 CFU/ml of tested bacteria were added to each well resulting in final peptide concentrations of 0, 0.5, 1, 2, 5, 10, and 20 μg/ml. […] The lowest concentration, in which there is no observable growth (>90% inhibition) is referred to as minimal inhibitory concentration (MIC). […] For each peptide concentration two identical inhibition assays were performed.

[2] = system: Pseudomonas syringae pv. tomato; assay type: cell-based; conditions: for LC (lethal concentration, 100% inhibition): at least 4 days of incubation
Protocol: as §1, §2

[3] = system: Pseudomonas syringae pv. syringae; assay type: cell-based; conditions: for LC (lethal concentration, 100% inhibition): at least 4 days of incubation
Protocol: as §1, §2

[4] = system: Pectobacterium carotovorum; assay type: cell-based; conditions: for LC (lethal concentration, 100% inhibition): at least 4 days of incubation
Protocol: as §1, §2

Botrytis cinerea = test: In-vitro inhibition assay (MIC), Example 2; assay type: cell-based; conditions: visual screening
Protocol: as §1, with “or 20 μl (antifungal assay)” for “or 20 (antifungal assay)”
(§3) Spores of fungi were collected by water washes of sporulating cultures grown on 2% malt extract agar and spore concentration was determined by microscopy. The concentration of the spores was adjusted to 1.5-2×10^3 spores/ml in 2% malt extract medium and 80 μl of fungal spores were added per well. The final peptide concentrations used in the fungal inhibition assays were […]. After overnight incubation at room temperature the plate were put on a rotary shaker (300 rpm) for further two days to ensure consistantly growth. Antifungal effects of the peptides were determined by a microplate reader (Alternaria, Fusarium) at OD590 nm or by visual screening of the plates (Botrytis, Cladosporium).
(§4) The lowest peptide concentration leading to complete inhibition of bacterial growth or spore germination/mycelial growth (minimal inhibition concentration, MIC) was determined for each organism-peptide combination. For each peptide concentration two identical inhibition assays were performed.

Cladosporium herbarum = test: In-vitro inhibition assay (MIC), Example 2; assay type: cell-based; conditions: visual screening
Protocol: as §1, with “or 20 μl (antifungal assay)” for “or 20 (antifungal assay)”
as §3, §4

Alternaria alternata = test: In-vitro inhibition assay (MIC), Example 2; assay type: cell-based; conditions: OD590 nm
Protocol: as §1, with “or 20 μl (antifungal assay)” for “or 20 (antifungal assay)”
as §3, §4

[5] = system: Pseudomonas syringae pv. syringae
[6] = system: Pseudomonas syringae pv. tomato
Pseudomonas corrugata [7] = system: Pseudomonas corrugata
Xanthomonas vesicatoria [8] = system: Xanthomonas vesicatoria
[9] = system: Clavibacter michiganensis; test: In-vitro inhibition assay (MIC and LC), Example 3; assay type: cell-based; conditions: for MIC (>90% inhibition): 1-2 days at 25° C.; for LC (lethal concentration, 100% inhibition): at least 4 days of incubation
Protocol: as §1, §2

Xanthomonas vesicatoria [10] = test: In-vitro inhibition assay (MIC and LC), Example 3; assay type: cell-based; conditions: for MIC (>90% inhibition): 1-2 days at 25° C.; for LC (lethal concentration, 100% inhibition): at least 4 days of incubation
Protocol: as §1, §2

[11] = system: Pectobacterium carotovorum sub. carotovorum
[12] = system: Clavibacter michiganensis sub. michiganensis; conditions: overnight 25° C.
phytopathogenic fungi = test: Antifungal inhibition assay, summary statement; assay type: cell-based; conditions: summary of Table 1
Protocol: as §1, with “or 20 μl (antifungal assay)” for “or 20 (antifungal assay)”
as §3
The lowest peptide concentration leading to complete inhibition of bacterial growth or spore germination/mycelial growth (minimal inhibition concentration, MIC) was determined for each organism-peptide combination. […]

[13] = Pseudomonas syringae pv. tomato
[14] = Pseudomonas syringae pv. syringae
[15] = Pseudomonas corrugata, 1-2 days at 25° C.
[16] = Pseudomonas syringae pv. tomato, 1-2 days at 25° C.
[17] = Pseudomonas syringae pv. syringae, 1-2 days at 25° C.
[18] = Pectobacterium carotovorum, 1-2 days at 25° C.

Substance | LC (lethal concentration, 100% inhibition) (Pseudomonas corrugata [1]; Pseudomonas corrugata) | LC (lethal concentration, 100% inhibition) [2, 13] | LC (lethal concentration, 100% inhibition) [3, 14] [µg/mL] | LC (lethal concentration, 100% inhibition) ([4]; Pectobacterium carotovorum) | Minimal inhibition concentration (MIC) for complete inhibition of spore germination/mycelial growth (Botrytis cinerea) [µg/mL] | Minimal inhibition concentration (MIC) for complete inhibition of spore germination/mycelial growth (Cladosporium herbarum) [µg/mL] | Minimal inhibition concentration (MIC) for complete inhibition of spore germination/mycelial growth (Alternaria alternata) [µg/mL] | MIC (>90% inhibition) [9] | LC (lethal concentration, 100% inhibition) [9] | MIC (>90% inhibition) (Xanthomonas vesicatoria [10]) | LC (lethal concentration, 100% inhibition) (Xanthomonas vesicatoria [10]) | Minimal inhibition concentration (MIC) for complete inhibition of bacterial growth [12] [µg/mL] | MIC (>90% inhibition) (Pseudomonas corrugata [1]; [15]) | MIC (>90% inhibition) [2, 16] | MIC (>90% inhibition) [3, 17] [µg/mL] | MIC (>90% inhibition) [4, 18] | also measured
RKKRLKLLKRLV-NH2 [SP1] | 1.0 µg/mL | 10/10 μg/ml | 0.5 | >10/>10 μg/ml | >100 | 10 | >100 | 5.0/5.0 μg/ml | 5.0/5.0 μg/ml | 0.5 µg/mL | 1.0 µg/mL | 1 | – | – | – | – | MIC (>90% inhibition) (Pseudomonas corrugata [1]): 0.5 µg/mL; MIC (>90% inhibition) [2]: 10/10 μg/ml; MIC (>90% inhibition) [3]: 0.1 µg/mL; MIC (>90% inhibition) [4]: >10/>10 μg/ml; Minimal inhibition concentration (MIC) for complete inhibition of bacterial growth [5]: 2 µg/mL; Minimal inhibition concentration (MIC) for complete inhibition of bacterial growth [6]: 1 µg/mL; Minimal inhibition concentration (MIC) for complete inhibition of bacterial growth (Pseudomonas corrugata [7]): 2 µg/mL; Minimal inhibition concentration (MIC) for complete inhibition of bacterial growth (Xanthomonas vesicatoria [8]): 2 µg/mL; Minimal inhibition concentration (MIC) for complete inhibition of bacterial growth [11]: >40 µg/mL
RKRAARLLKRLV-NH2 [Sp2] | – | – | – | – | >100 | 20 | >100 | – | – | – | – | – | – | – | – | – | –
SP1-D: Polypeptide SP1 (RKKRLKLLKRLV) with D-amino acids incorporated; D positions marked bold/italic in b61, not recoverable (also: D-amino acids at unstated positions) | – | – | – | – | >40 | 20 | 20 | – | – | – | – | 40 | – | – | – | – | Minimal inhibition concentration (MIC) for complete inhibition of bacterial growth ([5]; Pseudomonas syringae pv. syringae, overnight 25° C.): 5 µg/mL; Efficacy against phytopathogenic fungi (phytopathogenic fungi): high efficacy against phytopathogenic fungi; Minimal inhibition concentration (MIC) for complete inhibition of bacterial growth ([6]; Pseudomonas syringae pv. tomato, overnight 25° C.): 5 µg/mL; Minimal inhibition concentration (MIC) for complete inhibition of bacterial growth (Pseudomonas corrugata [7]; Pseudomonas corrugata, overnight 25° C.): 20 µg/mL; Minimal inhibition concentration (MIC) for complete inhibition of bacterial growth (Xanthomonas vesicatoria [8]; Xanthomonas vesicatoria, overnight 25° C.): 40 µg/mL; Minimal inhibition concentration (MIC) for complete inhibition of bacterial growth ([11]; Pectobacterium carotovorum sub. carotovorum, overnight 25° C.): >40 µg/mL
RKKKLKVVKRLV-NH2 [SP1-6] | >10/>10 μg/ml | 1.0/1.0 μg/ml | > 10 | >10/>10 μg/ml | – | – | – | 10/>10 μg/ml | 10/>10 μg/ml | >10/>10 μg/ml | >10/>10 μg/ml | – | >10/>10 μg/ml | 1.0/1.0 μg/ml | 5.0 | >10/>10 μg/ml | –
RKKKIKIIKKII-NH2 [SP1-9] | 5.0/5.0 μg/ml | 10 µg/mL | 1.0 | >10/>10 μg/ml | – | – | – | 2.5 µg/mL | 10 µg/mL | 2.5/2.5 μg/ml | 2.5/2.5 μg/ml | – | 5.0/5.0 μg/ml | 5.0 µg/mL | 0.5 | >10/>10 μg/ml | –
KKKAARALKRAL-NH2 [Sp4, KKKAARALKRAL] | – | – | – | – | >100 | 40 | >100 | – | – | – | – | – | – | – | – | – | –
